Experimental findings from publication PMC5218480 (PLoS ONE, 2017) are described below.

The assay has as its system MV-4-11 cells. Put plainly: Gene expression microarray analysis (Affymetrix PrimeView) and GSEA. The class given is cell-based, human. Set-up: RFU PODN (11730768_x_at) / Fold change /veh PODN (11730768_x_at) / RFU LINC00158 (11744669_a_at) / Fold change /veh LINC00158 (11744669_a_at) / RFU DUSP10 (11751237_a_at) / Fold change /veh DUSP10 (11751237_a_at) / RFU ID3 (11757404_x_at) / Fold change /veh ID3 (11757404_x_at) / RFU PLEKHG5 (11737974_s_at) / Fold change /veh PLEKHG5 (11737974_s_at) / RFU LRRC4B (11730491_at) / Fold change /veh LRRC4B (11730491_at) / RFU GIMAP4 (11747438_a_at) / Fold change /veh GIMAP4 (11747438_a_at) / RFU KRT8 (11758183_x_at) / Fold change /veh KRT8 (11758183_x_at) / RFU CNN1 (11734310_a_at) / Fold change /veh CNN1 (11734310_a_at) / RFU VPS37D (11726825_at) / Fold change /veh VPS37D (11726825_at) / RFU C10orf10 (11716522_x_at) / Fold change /veh C10orf10 (11716522_x_at) / RFU KIR2DL2 /// KIR2DL4 /// KIR2DL5A /// KIR2DL5B /// KIR2DS1 /// KIR2DS2 /// KIR2DS3 /// KIR2DS4 /// KIR3DL3 /// KIR3DL3 /// KIR3DS1 (11738374_at) / Fold change /veh KIR2DL2 /// KIR2DL4 /// KIR2DL5A /// KIR2DL5B /// KIR2DS1 /// KIR2DS2 /// KIR2DS3 /// KIR2DS4 /// KIR3DL3 /// KIR3DL3 /// KIR3DS1 (11738374_at) / RFU C1QL1 (11718748_at) / Fold change /veh C1QL1 (11718748_at) / RFU TMPRSS4 (11747572_a_at) / Fold change /veh TMPRSS4 (11747572_a_at) / RFU HAMP (11756126_x_at) / Fold change /veh HAMP (11756126_x_at) / RFU RNFT2 (11725882_a_at) / Fold change /veh RNFT2 (11725882_a_at) / RFU NR4A2 (11747474_a_at) / Fold change /veh NR4A2 (11747474_a_at) / RFU ABCC12 (11746883_a_at) / Fold change /veh ABCC12 (11746883_a_at) / RFU TMEM136 (11760407_x_at) / Fold change /veh TMEM136 (11760407_x_at) / RFU CLDN22 /// WWC2 (11732394_at) / Fold change /veh CLDN22 /// WWC2 (11732394_at) / RFU HLA-DPB1 (11760878_x_at) / Fold change /veh HLA-DPB1 (11760878_x_at) / RFU SPINT1 (11716480_a_at) / Fold change /veh SPINT1 (11716480_a_at) / RFU GAP43 (11754022_s_at) / Fold change /veh GAP43 (11754022_s_at) / RFU A4GNT (11735810_at) / Fold change /veh A4GNT (11735810_at) / RFU PRB3 (11715151_x_at) / Fold change /veh PRB3 (11715151_x_at) / RFU TUBB4B (11761932_at) / Fold change /veh TUBB4B (11761932_at) / RFU CAPN14 (11732068_a_at) / Fold change /veh CAPN14 (11732068_a_at) / RFU TMCC2 (11721928_a_at) / Fold change /veh TMCC2 (11721928_a_at) / RFU IRGQ (11745062_a_at) / Fold change /veh IRGQ (11745062_a_at) / RFU FAM174B (11720279_a_at) / Fold change /veh FAM174B (11720279_a_at) / RFU TMPRSS4 (11748680_a_at) / Fold change /veh TMPRSS4 (11748680_a_at) / RFU FAM212B (11763350_a_at) / Fold change /veh FAM212B (11763350_a_at) / RFU PLEKHG5 (11743358_a_at) / Fold change /veh PLEKHG5 (11743358_a_at) / RFU ZSCAN30 (11745921_a_at) / Fold change /veh ZSCAN30 (11745921_a_at) / RFU CMKLR1 (11741424_a_at) / Fold change /veh CMKLR1 (11741424_a_at) / RFU LOC101060620 /// MAPK8IP1 (11723275_at) / Fold change /veh LOC101060620 /// MAPK8IP1 (11723275_at) / RFU SPTSSB (11747773_x_at) / Fold change /veh SPTSSB (11747773_x_at) / RFU PRSS12 (11739890_at) / Fold change /veh PRSS12 (11739890_at) / RFU BIN1 (11741810_x_at) / Fold change /veh BIN1 (11741810_x_at) / RFU WNT11 (11732464_a_at) / Fold change /veh WNT11 (11732464_a_at) / RFU C10orf10 (11716521_a_at) / Fold change /veh C10orf10 (11716521_a_at) / RFU C5orf56 (11738089_at) / Fold change /veh C5orf56 (11738089_at) / RFU CYB561 (11721691_x_at) / Fold change /veh CYB561 (11721691_x_at) / RFU ANKRD19P (11752326_a_at) / Fold change /veh ANKRD19P (11752326_a_at) / RFU OR2T12 /// OR2T33 /// OR2T8 (11738714_s_at) / Fold change /veh OR2T12 /// OR2T33 /// OR2T8 (11738714_s_at) / RFU VCAN (11748164_a_at) / Fold change /veh VCAN (11748164_a_at) / RFU JSRP1 (11732532_at) / Fold change /veh JSRP1 (11732532_at) / RFU KRTAP10-11 (11738290_x_at) / Fold change /veh KRTAP10-11 (11738290_x_at) / RFU MYO3A (11730013_a_at) / Fold change /veh MYO3A (11730013_a_at) / RFU EBF3 (11725865_a_at) / Fold change /veh EBF3 (11725865_a_at) / RFU CAMK2N1 (11719241_x_at) / Fold change /veh CAMK2N1 (11719241_x_at) / RFU C5orf56 (11738088_a_at) / Fold change /veh C5orf56 (11738088_a_at) / RFU OLFML3 (11715873_a_at) / Fold change /veh OLFML3 (11715873_a_at) / RFU LOC100653217 /// NTM (11731650_a_at) / Fold change /veh LOC100653217 /// NTM (11731650_a_at) / RFU MAPK11 (11762145_a_at) / Fold change /veh MAPK11 (11762145_a_at) / RFU FIZ1 (11724087_x_at) / Fold change /veh FIZ1 (11724087_x_at) / RFU OASL (11726364_x_at) / Fold change /veh OASL (11726364_x_at) / RFU SOX15 (11748057_x_at) / Fold change /veh SOX15 (11748057_x_at) / RFU CD79A (11719716_a_at) / Fold change /veh CD79A (11719716_a_at) / RFU HIST1H1D (11736915_at) / Fold change /veh HIST1H1D (11736915_at) / RFU CASKIN2 (11723855_a_at) / Fold change /veh CASKIN2 (11723855_a_at) / RFU LOC730098 (11760151_x_at) / Fold change /veh LOC730098 (11760151_x_at) / RFU OR4N2 (11742367_at) / Fold change /veh OR4N2 (11742367_at) / RFU PRRT2 (11749266_a_at) / Fold change /veh PRRT2 (11749266_a_at) / RFU SNX32 (11753110_a_at) / Fold change /veh SNX32 (11753110_a_at) / RFU CDHR5 (11726645_a_at) / Fold change /veh CDHR5 (11726645_a_at) / RFU RCAN1 (11760418_a_at) / Fold change /veh RCAN1 (11760418_a_at) / RFU FAM167A (11723789_a_at) / Fold change /veh FAM167A (11723789_a_at) / RFU FAM26E (11764081_at) / Fold change /veh FAM26E (11764081_at) / RFU ISYNA1 (11749810_s_at) / Fold change /veh ISYNA1 (11749810_s_at) / RFU ACY1 (11761880_at) / Fold change /veh ACY1 (11761880_at) / RFU 11764098_at / Fold change /veh 11764098_at / RFU SAMD14 (11745864_x_at) / Fold change /veh SAMD14 (11745864_x_at) / RFU NPB (11741838_a_at) / Fold change /veh NPB (11741838_a_at) / RFU TMPRSS6 (11731388_a_at) / Fold change /veh TMPRSS6 (11731388_a_at) / RFU KRTAP10-2 (11738614_at) / Fold change /veh KRTAP10-2 (11738614_at) / RFU ARHGAP8 /// PRR5-ARHGAP8 (11727945_x_at) / Fold change /veh ARHGAP8 /// PRR5-ARHGAP8 (11727945_x_at) / RFU KRTAP5-7 /// NADSYN1 (11734609_at) / Fold change /veh KRTAP5-7 /// NADSYN1 (11734609_at) / RFU RASL12 (11751679_a_at) / Fold change /veh RASL12 (11751679_a_at) / RFU CDKN2B (11736163_a_at) / Fold change /veh CDKN2B (11736163_a_at) / RFU PRF1 (11729649_at) / Fold change /veh PRF1 (11729649_at) / RFU, ZNF638 /// ZNF638-IT1 / Fold change vs veh, ZNF638 /// ZNF638-IT1 / RFU, PANK3 / Fold change vs veh, PANK3 / RFU, SH3YL1 / Fold change vs veh, SH3YL1 / RFU, ZEB2 / Fold change vs veh, ZEB2 / RFU, NRIP1 / Fold change vs veh, NRIP1 / RFU, PTTG1IP / Fold change vs veh, PTTG1IP / RFU, CAPN2 / Fold change vs veh, CAPN2 / RFU, MED14 / Fold change vs veh, MED14 / RFU, SNORA58 / Fold change vs veh, SNORA58 / RFU, C1orf63 / Fold change vs veh, C1orf63 / RFU, LRRFIP1 / Fold change vs veh, LRRFIP1 / RFU, NDUFAF7 / Fold change vs veh, NDUFAF7 / RFU, SLC12A2 / Fold change vs veh, SLC12A2 / RFU, IBTK / Fold change vs veh, IBTK / RFU, ESF1 / Fold change vs veh, ESF1 / Fold change vs veh, TMEM50B / RFU, TAOK1 / Fold change vs veh, TAOK1 / RFU, ACBD3 / Fold change vs veh, ACBD3 / RFU, TMA16 / Fold change vs veh, TMA16 / RFU, RWDD3 / Fold change vs veh, RWDD3 / RFU, BCAT1 / Fold change vs veh, BCAT1 / RFU, EDEM3 / Fold change vs veh, EDEM3 / RFU, TMEM33 / Fold change vs veh, TMEM33 / RFU, WDR75 / Fold change vs veh, WDR75 / RFU, AHCTF1 / Fold change vs veh, AHCTF1 / RFU, TFRC / Fold change vs veh, TFRC / RFU, ZDHHC17 / Fold change vs veh, ZDHHC17 / RFU, NOM1 / Fold change vs veh, NOM1 / RFU, ARL8B / Fold change vs veh, ARL8B / RFU, ZBTB11 / Fold change vs veh, ZBTB11 / RFU, TAMM41 / Fold change vs veh, TAMM41 / RFU, KIAA1704 /// LOC100996395 / Fold change vs veh, KIAA1704 /// LOC100996395 / RFU, ING1 / Fold change vs veh, ING1 / RFU, TRMT61B / Fold change vs veh, TRMT61B / RFU, FUBP3 / Fold change vs veh, FUBP3 / RFU, TP53 / Fold change vs veh, TP53 / RFU, TNKS2 / Fold change vs veh, TNKS2 / RFU, ZFP14 / Fold change vs veh, ZFP14 / RFU, ACTR2 / Fold change vs veh, ACTR2 / RFU, PPP3R1 / Fold change vs veh, PPP3R1 / RFU, PIK3R1 / Fold change vs veh, PIK3R1 / RFU, HNRNPA1 / Fold change vs veh, HNRNPA1 / RFU, RNF170 / Fold change vs veh, RNF170 / RFU, ZNF28 / Fold change vs veh, ZNF28 / RFU, RNGTT / Fold change vs veh, RNGTT / RFU, OGT / Fold change vs veh, OGT / RFU, BRD1 / Fold change vs veh, BRD1 / RFU, MARS / Fold change vs veh, MARS / RFU, ZNF655 / Fold change vs veh, ZNF655 / RFU, FAHD1 / Fold change vs veh, FAHD1 / RFU, BDP1 / Fold change vs veh, BDP1 / RFU, LRRCC1 / Fold change vs veh, LRRCC1 / RFU, ARID1A / Fold change vs veh, ARID1A / RFU, ZNF146 / Fold change vs veh, ZNF146 / RFU, ZNF330 / Fold change vs veh, ZNF330 / RFU, GPN3 / Fold change vs veh, GPN3 / RFU, C9orf123 / Fold change vs veh, C9orf123 / RFU, N4BP2L2 / Fold change vs veh, N4BP2L2 / RFU, ARFIP1 / Fold change vs veh, ARFIP1 / RFU, FAM179B / Fold change vs veh, FAM179B / RFU, BCL10 / Fold change vs veh, BCL10 / RFU, UHRF1BP1L / Fold change vs veh, UHRF1BP1L / RFU, BET1 / Fold change vs veh, BET1 / RFU, CNOT2 / Fold change vs veh, CNOT2 / RFU, ZNF268 / Fold change vs veh, ZNF268 / Fold change vs veh, ZNF507 / RFU, DGCR2 / Fold change vs veh, DGCR2 / RFU, WDSUB1 / Fold change vs veh, WDSUB1 / Fold change vs veh, HSP90B1 /// MIR3652 / RFU, ADSS / Fold change vs veh, ADSS / RFU, GK / Fold change vs veh, GK / RFU, ZNF148 / Fold change vs veh, ZNF148 / RFU, TAF9 / Fold change vs veh, TAF9 / RFU, SLC1A5 / Fold change vs veh, SLC1A5 / RFU, SLMO2 / Fold change vs veh, SLMO2 / RFU, ABCC4 / Fold change vs veh, ABCC4 / RFU, LOC101060439 /// RAP1B / Fold change vs veh, LOC101060439 /// RAP1B / RFU, RFX7 / Fold change vs veh, RFX7 / RFU, GTPBP10 / Fold change vs veh, GTPBP10 / RFU, CNEP1R1 / Fold change vs veh, CNEP1R1 / RFU, BIVM-ERCC5 /// ERCC5 / Fold change vs veh, BIVM-ERCC5 /// ERCC5 / RFU, ILF3 / Fold change vs veh, ILF3 / RFU 11762660_at / Fold change /veh 11762660_at / RFU VCAN (11757783_s_at) / Fold change /veh VCAN (11757783_s_at) / RFU DDX43 (11728927_at) / Fold change /veh DDX43 (11728927_at) / RFU KRT8 (11758188_x_at) / Fold change /veh KRT8 (11758188_x_at) / RFU NKD1 (11759106_at) / Fold change /veh NKD1 (11759106_at) / RFU SRD5A1 (11742802_a_at) / Fold change /veh SRD5A1 (11742802_a_at) / RFU TPSAB1 /// TPSB2 (11721975_s_at) / Fold change /veh TPSAB1 /// TPSB2 (11721975_s_at) / RFU GSTM3 (11746129_a_at) / Fold change /veh GSTM3 (11746129_a_at) / RFU IL23R (11737362_x_at) / Fold change /veh IL23R (11737362_x_at) / RFU TMEM51 (11727254_a_at) / Fold change /veh TMEM51 (11727254_a_at) / RFU PIWIL2 (11732686_x_at) / Fold change /veh PIWIL2 (11732686_x_at) / RFU ORM1 (11744905_x_at) / Fold change /veh ORM1 (11744905_x_at) / RFU CCDC152 (11743942_at) / Fold change /veh CCDC152 (11743942_at) / RFU ECM1 (11717891_a_at) / Fold change /veh ECM1 (11717891_a_at) / RFU IL23R (11748794_a_at) / Fold change /veh IL23R (11748794_a_at) / RFU TNFAIP8L3 (11732012_x_at) / Fold change /veh TNFAIP8L3 (11732012_x_at) / RFU MBOAT4 (11741988_at) / Fold change /veh MBOAT4 (11741988_at) / RFU 11764193_at / Fold change /veh 11764193_at / RFU TMEM53 (11763286_at) / Fold change /veh TMEM53 (11763286_at) / RFU MAGEB2 (11727129_at) / Fold change /veh MAGEB2 (11727129_at) / RFU TMEM200A (11744735_a_at) / Fold change /veh TMEM200A (11744735_a_at) / RFU CCDC152 (11751479_a_at) / Fold change /veh CCDC152 (11751479_a_at) / RFU FAM211A (11726209_a_at) / Fold change /veh FAM211A (11726209_a_at) / RFU RGS16 (11746705_a_at) / Fold change /veh RGS16 (11746705_a_at) / RFU VCAN (11755009_s_at) / Fold change /veh VCAN (11755009_s_at) / RFU RHOB (11743442_s_at) / Fold change /veh RHOB (11743442_s_at) / RFU RGS16 (11720943_a_at) / Fold change /veh RGS16 (11720943_a_at) / RFU RGS16 (11720944_at) / Fold change /veh RGS16 (11720944_at) / RFU, VPS4B / Fold change vs veh, VPS4B / RFU, CREB1 / Fold change vs veh, CREB1 / RFU, DNAJC13 / Fold change vs veh, DNAJC13 / RFU, GNAQ / Fold change vs veh, GNAQ / RFU, CDK5R1 / Fold change vs veh, CDK5R1 / RFU, ZRANB3 / Fold change vs veh, ZRANB3 / RFU, CUL4A / Fold change vs veh, CUL4A / RFU, CCNY / Fold change vs veh, CCNY / RFU, UFL1 / Fold change vs veh, UFL1 / RFU, COG3 / Fold change vs veh, COG3 / RFU, DIAPH2 / Fold change vs veh, DIAPH2 / RFU, SKA2 / Fold change vs veh, SKA2 / RFU, AFF3 / Fold change vs veh, AFF3 / RFU, LMF1 / Fold change vs veh, LMF1 / RFU, IPO11 / Fold change vs veh, IPO11 / RFU, DFFB / Fold change vs veh, DFFB / RFU, FOXP1 / Fold change vs veh, FOXP1 / RFU, CARD8 / Fold change vs veh, CARD8 / RFU, STRN3 / Fold change vs veh, STRN3 / RFU, ADK / Fold change vs veh, ADK / RFU, RASSF2 / Fold change vs veh, RASSF2 / RFU, WIPF1 / Fold change vs veh, WIPF1 / RFU, LARP1B / Fold change vs veh, LARP1B / RFU, RASA1 / Fold change vs veh, RASA1 / RFU, RB1 / Fold change vs veh, RB1 / RFU, PPFIA1 / Fold change vs veh, PPFIA1 / RFU, MAT2A / Fold change vs veh, MAT2A / RFU, CCT5 / Fold change vs veh, CCT5 / RFU, WDR92 / Fold change vs veh, WDR92 / RFU, CUX1 / Fold change vs veh, CUX1 / RFU, TTC7A / Fold change vs veh, TTC7A / RFU, TMEM135 / Fold change vs veh, TMEM135 / RFU, DEPTOR / Fold change vs veh, DEPTOR / RFU, CPM / Fold change vs veh, CPM / RFU, DNAJB6 / Fold change vs veh, DNAJB6 / RFU, CACNA2D3 / Fold change vs veh, CACNA2D3 / RFU, DTX4 / Fold change vs veh, DTX4 / RFU, TFCP2 / Fold change vs veh, TFCP2 / RFU, GMCL1 /// GMCL1P1 / Fold change vs veh, GMCL1 /// GMCL1P1 / RFU, AEBP2 / Fold change vs veh, AEBP2 / RFU, SNHG1 /// SNORD22 /// SNORD25 /// SNORD26 /// SNORD27 /// SNORD28 /// SNORD29 /// SNORD31 / Fold change vs veh, SNHG1 /// SNORD22 /// SNORD25 /// SNORD26 /// SNORD27 /// SNORD28 /// SNORD29 /// SNORD31 / Fold change (Aza/veh), C12orf56 (ProbeSet 11735607_a_at) / Fold change (ACY-1035/veh), C12orf56 (ProbeSet 11735607_a_at) / Fold change (Aza/veh), FGFR1OP (ProbeSet 11751329_s_at) / Fold change (ACY-1035/veh), FGFR1OP (ProbeSet 11751329_s_at) / Fold change (Aza/veh), VPS36 (ProbeSet 11739960_a_at) / Fold change (ACY-1035/veh), VPS36 (ProbeSet 11739960_a_at) / RFU SYPL1 (11715823_x_at) / Fold change /veh SYPL1 (11715823_x_at) / RFU IGFBP7 (11715501_s_at) / Fold change /veh IGFBP7 (11715501_s_at) / RFU REEP3 (11722064_at) / Fold change /veh REEP3 (11722064_at) / RFU IGLL1 (11728026_x_at) / Fold change /veh IGLL1 (11728026_x_at): dose or concentration left out as unconfirmed. As to conditions: MV-4-11 cells, 48 hours.

For the compound `Nc1ccc(-c2cccs2)cc1NC(=O)c1ccc2c(c1)cc(C1CC1)n2CCN1CCOCC1` [ACY-1035], the “RFU PODN (11730768_x_at)” value is given as 25.60 RFU.
